{
  "source": "PubChem BioAssay AID1259407",
  "about": "(Chemical Carcinogenesis Research Information System (CCRIS), 2018)",
  "tested_on": "CCRIS mutagenicity, Ames/micronucleus/aberration tests",
  "experiment": "CCRIS mutagenicity studies",
  "note": "Activity calls are given as the source filed them. No rule for the calls is given here.",
  "data": [
    {"compound": "Nc1ccc(-c2ccc(N)cc2)cc1", "values": [
      {"measurement": "mutagenic call", "setting": "End Point: IN VITRO CHROMOSOMAL ABERRATIONS, Test System: CHINESE HAMSTER OVARY CELLS, Metabolic Activation: NONE", "result": "inactive; negative"},
      {"measurement": "mutagenic call", "setting": "End Point: IN VITRO CHROMOSOMAL ABERRATIONS, Test System: CHINESE HAMSTER OVARY CELLS, Metabolic Activation: RAT, LIVER, S-9, AROCLOR 1254", "result": "active; positive"},
      {"measurement": "mutagenic call", "setting": "Test System: AMES SALMONELLA TYPHIMURIUM, Strain/Indicator: DJ400, Metabolic Activation: HUMAN, HEPATOMA CELLS, BENZO[A]ANTHRACENE, Method: PREINCUBATION", "result": "active; positive"},
      {"measurement": "mutagenic call", "setting": "Test System: AMES SALMONELLA TYPHIMURIUM, Strain/Indicator: DJ400, Metabolic Activation: HUMAN, HEPATOMA CELLS, Method: PREINCUBATION", "result": "active; positive"},
      {"measurement": "mutagenic call", "setting": "Test System: AMES SALMONELLA TYPHIMURIUM, Strain/Indicator: DJ400, Metabolic Activation: RAT, LIVER, S-9, AROCLOR 1254, Method: PREINCUBATION", "result": "active; positive"},
      {"measurement": "mutagenic call", "setting": "Test System: AMES SALMONELLA TYPHIMURIUM, Strain/Indicator: DJ400, Metabolic Activation: RAT, LIVER, S-9, Method: PREINCUBATION", "result": "active; positive"},
      {"measurement": "mutagenic call", "setting": "Test System: AMES SALMONELLA TYPHIMURIUM, Strain/Indicator: DJ400, Metabolic Activation: TOBACCO TX1 CELLS, Method: PREINCUBATION", "result": "inactive; negative"},
      {"measurement": "mutagenic call", "setting": "Test System: AMES SALMONELLA TYPHIMURIUM, Strain/Indicator: DJ460, Metabolic Activation: HUMAN, HEPATOMA CELLS, BENZO[A]ANTHRACENE, Method: PREINCUBATION", "result": "active; positive"},
      {"measurement": "mutagenic call", "setting": "Test System: AMES SALMONELLA TYPHIMURIUM, Strain/Indicator: DJ460, Metabolic Activation: HUMAN, HEPATOMA CELLS, Method: PREINCUBATION", "result": "active; positive"},
      {"measurement": "mutagenic call", "setting": "Test System: AMES SALMONELLA TYPHIMURIUM, Strain/Indicator: DJ460, Metabolic Activation: RAT, LIVER, S-9, AROCLOR 1254, Method: PREINCUBATION", "result": "active; positive"},
      {"measurement": "mutagenic call", "setting": "Test System: AMES SALMONELLA TYPHIMURIUM, Strain/Indicator: DJ460, Metabolic Activation: RAT, LIVER, S-9, Method: PREINCUBATION", "result": "active; positive"},
      {"measurement": "mutagenic call", "setting": "Test System: AMES SALMONELLA TYPHIMURIUM, Strain/Indicator: DJ460, Metabolic Activation: TOBACCO CELL-FREE EXTRACT, Method: PREINCUBATION", "result": "active; positive"},
      {"measurement": "mutagenic call", "setting": "Test System: AMES SALMONELLA TYPHIMURIUM, Strain/Indicator: DJ460, Metabolic Activation: TOBACCO TX1 CELLS, Method: PREINCUBATION", "result": "active; positive"},
      {"measurement": "mutagenic call", "setting": "Test System: AMES SALMONELLA TYPHIMURIUM, Strain/Indicator: MP110, Metabolic Activation: TOBACCO TX1 CELLS, Method: PREINCUBATION", "result": "inactive; negative"},
      {"measurement": "mutagenic call", "setting": "Test System: AMES SALMONELLA TYPHIMURIUM, Strain/Indicator: MP120, Metabolic Activation: TOBACCO TX1 CELLS, Method: PREINCUBATION", "result": "inactive; negative"},
      {"measurement": "mutagenic call", "setting": "Test System: AMES SALMONELLA TYPHIMURIUM, Strain/Indicator: MP208, Metabolic Activation: TOBACCO CELL-FREE TXIMX, Method: PREINCUBATION", "result": "active; positive"},
      {"measurement": "mutagenic call", "setting": "Test System: AMES SALMONELLA TYPHIMURIUM, Strain/Indicator: MP219, Metabolic Activation: TOBACCO CELL-FREE TXIMX, Method: PREINCUBATION", "result": "active; positive"},
      {"measurement": "mutagenic call", "setting": "Test System: AMES SALMONELLA TYPHIMURIUM, Strain/Indicator: SV50, Metabolic Activation: HAMSTER, LIVER, S-9, Method: STANDARD PLATE", "result": "inactive; negative"},
      {"measurement": "mutagenic call", "setting": "Test System: AMES SALMONELLA TYPHIMURIUM, Strain/Indicator: SV50, Metabolic Activation: NONE, Method: PREINCUBATION (PRIVAL METHOD)", "result": "active; positive"},
      {"measurement": "mutagenic call", "setting": "Test System: AMES SALMONELLA TYPHIMURIUM, Strain/Indicator: SV50, Metabolic Activation: RAT, LIVER, S-9, AROCLOR 1254, Method: STANDARD PLATE", "result": "inactive; negative"},
      {"measurement": "mutagenic call", "setting": "Test System: AMES SALMONELLA TYPHIMURIUM, Strain/Indicator: TA98(1,8-DNP6), Metabolic Activation: NONE, Method: PREINCUBATION", "result": "inactive; negative"},
      {"measurement": "mutagenic call", "setting": "Test System: AMES SALMONELLA TYPHIMURIUM, Strain/Indicator: TA98(1,8-DNP6), Metabolic Activation: NONE, Method: STANDARD PLATE", "result": "inactive; negative"},
      {"measurement": "mutagenic call", "setting": "Test System: AMES SALMONELLA TYPHIMURIUM, Strain/Indicator: TA98(1,8-DNP6), Metabolic Activation: PLANT CELLS, Method: PREINCUBATION", "result": "active; positive"},
      {"measurement": "mutagenic call", "setting": "Test System: AMES SALMONELLA TYPHIMURIUM, Strain/Indicator: TA98(1,8-DNP6), Metabolic Activation: S-9, Method: STANDARD PLATE", "result": "inactive; negative"},
      {"measurement": "mutagenic call", "setting": "Test System: AMES SALMONELLA TYPHIMURIUM, Strain/Indicator: TA98(1,8-DNP6), Metabolic Activation: TOBACCO CELL-FREE TXIMX, Method: PREINCUBATION", "result": "inactive; negative"},
      {"measurement": "mutagenic call", "setting": "Test System: AMES SALMONELLA TYPHIMURIUM, Strain/Indicator: TA98(NR), Metabolic Activation: TOBACCO CELL-FREE TXIMX, Method: PREINCUBATION", "result": "active; positive"},
      {"measurement": "mutagenic call", "setting": "Test System: AMES SALMONELLA TYPHIMURIUM, Strain/Indicator: TA98, Metabolic Activation: HAMSTER, LIVER, S-9, Method: PREINCUBATION", "result": "active; positive"},
      {"measurement": "mutagenic call", "setting": "Test System: AMES SALMONELLA TYPHIMURIUM, Strain/Indicator: TA98, Metabolic Activation: HAMSTER, LIVER, S-9, Method: PREINCUBATION (PRIVAL METHOD)", "result": "active; positive"},
      {"measurement": "mutagenic call", "setting": "Test System: AMES SALMONELLA TYPHIMURIUM, Strain/Indicator: TA98, Metabolic Activation: HAMSTER, LIVER, S-9, Method: STANDARD PLATE", "result": "active; positive"},
      {"measurement": "mutagenic call", "setting": "Test System: AMES SALMONELLA TYPHIMURIUM, Strain/Indicator: TA98, Metabolic Activation: HUMAN, HEPATOMA CELLS, BENZO[A]ANTHRACENE, Method: PREINCUBATION", "result": "active; positive"},
      {"measurement": "mutagenic call", "setting": "Test System: AMES SALMONELLA TYPHIMURIUM, Strain/Indicator: TA98, Metabolic Activation: HUMAN, HEPATOMA CELLS, Method: PREINCUBATION", "result": "active; positive"},
      {"measurement": "mutagenic call", "setting": "Test System: AMES SALMONELLA TYPHIMURIUM, Strain/Indicator: TA98, Metabolic Activation: MOUSE, LIVER, S-9, Method: STANDARD PLATE", "result": "active; positive"},
      {"measurement": "mutagenic call", "setting": "Test System: AMES SALMONELLA TYPHIMURIUM, Strain/Indicator: TA98, Metabolic Activation: NONE, Method: PREINCUBATION", "result": "inactive; negative"},
      {"measurement": "mutagenic call", "setting": "Test System: AMES SALMONELLA TYPHIMURIUM, Strain/Indicator: TA98, Metabolic Activation: NONE, Method: STANDARD PLATE", "result": "inactive; negative"},
      {"measurement": "mutagenic call", "setting": "Test System: AMES SALMONELLA TYPHIMURIUM, Strain/Indicator: TA98, Metabolic Activation: PLANT CELLS, Method: PREINCUBATION", "result": "active; positive"},
      {"measurement": "mutagenic call", "setting": "Test System: AMES SALMONELLA TYPHIMURIUM, Strain/Indicator: TA98, Metabolic Activation: RAT LIVER S-9, AROCLOR 1254, Method: PREINCUBATION", "result": "active; positive"},
      {"measurement": "mutagenic call", "setting": "Test System: AMES SALMONELLA TYPHIMURIUM, Strain/Indicator: TA98, Metabolic Activation: RAT, BLADDER, S-9, PCB, Method: FLUCTUATION TEST", "result": "inactive; negative"},
      {"measurement": "mutagenic call", "setting": "Test System: AMES SALMONELLA TYPHIMURIUM, Strain/Indicator: TA98, Metabolic Activation: RAT, LIVER, S-9, AROCLOR 1254, Method: PREINCUBATION", "result": "active; positive"},
      {"measurement": "mutagenic call", "setting": "Test System: AMES SALMONELLA TYPHIMURIUM, Strain/Indicator: TA98, Metabolic Activation: RAT, LIVER, S-9, AROCLOR 1254, Method: STANDARD PLATE", "result": "active; positive"},
      {"measurement": "mutagenic call", "setting": "Test System: AMES SALMONELLA TYPHIMURIUM, Strain/Indicator: TA98, Metabolic Activation: RAT, LIVER, S-9, PHENOBARBITAL, Method: STANDARD PLATE", "result": "active; positive"},
      {"measurement": "mutagenic call", "setting": "Test System: AMES SALMONELLA TYPHIMURIUM, Strain/Indicator: TA98, Metabolic Activation: RAT, LIVER, S-9, Method: PREINCUBATION", "result": "active; positive"},
      {"measurement": "mutagenic call", "setting": "Test System: AMES SALMONELLA TYPHIMURIUM, Strain/Indicator: TA98, Metabolic Activation: S-9, Method: STANDARD PLATE", "result": "active; positive"},
      {"measurement": "mutagenic call", "setting": "Test System: AMES SALMONELLA TYPHIMURIUM, Strain/Indicator: TA98, Metabolic Activation: TOBACCO CELL-FREE TXIMX, Method: PREINCUBATION", "result": "active; positive"},
      {"measurement": "mutagenic call", "setting": "Test System: AMES SALMONELLA TYPHIMURIUM, Strain/Indicator: TA100(NR), Metabolic Activation: TOBACCO CELL-FREE TXIMX, Method: PREINCUBATION", "result": "inactive; negative"},
      {"measurement": "mutagenic call", "setting": "Test System: AMES SALMONELLA TYPHIMURIUM, Strain/Indicator: TA100(TN:OAT), Metabolic Activation: TOBACCO CELL-FREE TXIMX, Method: PREINCUBATION", "result": "inactive; negative"},
      {"measurement": "mutagenic call", "setting": "Test System: AMES SALMONELLA TYPHIMURIUM, Strain/Indicator: TA100, Metabolic Activation: HUMAN, LIVER, S-9, Method: STANDARD PLATE", "result": "active; positive"},
      {"measurement": "mutagenic call", "setting": "Test System: AMES SALMONELLA TYPHIMURIUM, Strain/Indicator: TA100, Metabolic Activation: NONE, Method: PREINCUBATION", "result": "inactive; negative"},
      {"measurement": "mutagenic call", "setting": "Test System: AMES SALMONELLA TYPHIMURIUM, Strain/Indicator: TA100, Metabolic Activation: NONE, Method: STANDARD PLATE", "result": "inactive; negative"},
      {"measurement": "mutagenic call", "setting": "Test System: AMES SALMONELLA TYPHIMURIUM, Strain/Indicator: TA100, Metabolic Activation: RAT LIVER S-9, AROCLOR 1254, Method: PREINCUBATION", "result": "inactive; negative"}
    ]}
  ]
}
